Source: PubChem BioAssay AID256 (DTP/NCI, 2004)
Several values for one entry are separate records, joined by “and”; a condition that tells them apart may be missing. Equal values may be shown once. Inconclusive results and toxic doses are left out.

Tested on: CD2F1 mice, L1210 leukemia ip, survival T/C
Test: NCI In Vivo Anticancer Drug Screen. Data for tumor model L1210 Leukemia (intraperitoneal) in CD2F1 (CDF1) mice
Conditions: endpoint: mean survival time, higher = longer survival
Summary of the method: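 Antitumor effect is scored in animals hosting a serially transplanted tumor. Values compare compound-dosed animals against vehicle-only controls as a simple quotient.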

[1] = dose: 25.0 mg/kg/injection, schedule: Q01DX009 (ip), vehicle: saline
[2] = dose: 50.0 mg/kg/injection, schedule: Q01DX009 (ip), vehicle: saline
[3] = dose: 100.0 mg/kg/injection, schedule: Q01DX009 (ip), vehicle: saline
[4] = dose: 200.0 mg/kg/injection, schedule: Q01DX009 (ip), vehicle: saline

C/C(=N\N=C(N)N)c1ccc(NC(=O)Nc2ccc(/C(C)=N/N=C(N)N)cc2)cc1
T/C (dose: 25.0 mg/kg/injection, schedule: Q01DX005 (ip), vehicle: saline): 155 % of control | T/C [1]: 155 % of control | T/C (dose: 25.0 mg/kg/injection, schedule: Q01DX009 (sc), vehicle: saline): 101 % of control | T/C (dose: 50.0 mg/kg/injection, schedule: Q01DX005 (ip), vehicle: saline): 185 % of control | T/C (dose: 50.0 mg/kg/injection, schedule: Q01DX007 (ip), vehicle: saline): 152 % of control | T/C [2]: 154 % of control and 188 % of control | T/C (dose: 50.0 mg/kg/injection, schedule: Q01DX009 (sc), vehicle: saline): 107 % of control | T/C (dose: 100.0 mg/kg/injection, schedule: Q01DX001 (sc), vehicle: saline): 101 % of control | T/C (dose: 100.0 mg/kg/injection, schedule: Q01DX005 (ip), vehicle: saline): 223 % of control | T/C (dose: 100.0 mg/kg/injection, schedule: Q01DX007 (ip), vehicle: saline): 225 % of control | T/C [3]: 250 % of control and 314 % of control | T/C (dose: 100.0 mg/kg/injection, schedule: Q01DX009 (oral), vehicle: saline): 98 % of control | T/C (dose: 100.0 mg/kg/injection, schedule: Q01DX009 (sc), vehicle: saline): 102 % of control | T/C (dose: 100.0 mg/kg/injection, schedule: Q03DX003 (ip), vehicle: saline): 154 % of control | T/C (dose: 100.0 mg/kg/injection, schedule: Q04DX003 (ip), vehicle: saline): 163 % of control | T/C (dose: 100.0 mg/kg/injection, schedule: Q## X024 (ip), vehicle: saline): 160 % of control | T/C (dose: 200.0 mg/kg/injection, schedule: Q01DX001 (ip), vehicle: saline): 155 % of control | T/C (dose: 200.0 mg/kg/injection, schedule: Q01DX001 (oral), vehicle: saline): 103 % of control | T/C (dose: 200.0 mg/kg/injection, schedule: Q01DX001 (sc), vehicle: saline): 102 % of control | T/C (dose: 200.0 mg/kg/injection, schedule: Q01DX007 (ip), vehicle: saline): 90 % of control | T/C [4]: 217 % of control | T/C (dose: 200.0 mg/kg/injection, schedule: Q01DX009 (oral), vehicle: saline): 88 % of control | T/C (dose: 200.0 mg/kg/injection, schedule: Q01DX009 (sc), vehicle: saline): 119 % of control | T/C (dose: 200.0 mg/kg/injection, schedule: Q03DX003 (ip), vehicle: saline): 186 % of control | T/C (dose: 200.0 mg/kg/injection, schedule: Q03HX008 (ip), vehicle: saline): 152 % of control | T/C (dose: 200.0 mg/kg/injection, schedule: Q04DX003 (ip), vehicle: saline): 156 % of control and 200 % of control | T/C (dose: 200.0 mg/kg/injection, schedule: Q08DX002 (ip), vehicle: saline): 172 % of control | T/C (dose: 200.0 mg/kg/injection, schedule: Q## X016 (ip), vehicle: saline): 198 % of control | T/C (dose: 200.0 mg/kg/injection, schedule: Q## X024 (ip), vehicle: saline): 230 % of control | T/C (dose: 400.0 mg/kg/injection, schedule: Q01DX001 (ip), vehicle: saline): 180 % of control | T/C (dose: 400.0 mg/kg/injection, schedule: Q01DX001 (oral), vehicle: saline): 101 % of control | T/C (dose: 400.0 mg/kg/injection, schedule: Q01DX001 (sc), vehicle: saline): 105 % of control | T/C (dose: 400.0 mg/kg/injection, schedule: Q01DX009 (oral), vehicle: saline): 116 % of control | T/C (dose: 400.0 mg/kg/injection, schedule: Q03HX008 (ip), vehicle: saline): 179 % of control | T/C (dose: 400.0 mg/kg/injection, schedule: Q04DX003 (ip), vehicle: saline): 325 % of control | T/C (dose: 400.0 mg/kg/injection, schedule: Q08DX002 (ip), vehicle: saline): 225 % of control | T/C (dose: 400.0 mg/kg/injection, schedule: Q## X016 (ip), vehicle: saline): 284 % of control | T/C (dose: 400.0 mg/kg/injection, schedule: Q## X024 (ip), vehicle: saline): 374 % of control | T/C (dose: 800.0 mg/kg/injection, schedule: Q01DX001 (ip), vehicle: saline): 206 % of control | T/C (dose: 800.0 mg/kg/injection, schedule: Q01DX001 (oral), vehicle: saline): 102 % of control | T/C (dose: 800.0 mg/kg/injection, schedule: Q01DX001 (sc), vehicle: saline): 105 % of control | T/C (dose: 800.0 mg/kg/injection, schedule: Q01DX009 (oral), vehicle: saline): 98 % of control | T/C (dose: 800.0 mg/kg/injection, schedule: Q04DX003 (ip), vehicle: saline): 294 % of control | T/C (dose: 800.0 mg/kg/injection, schedule: Q08DX002 (ip), vehicle: saline): 217 % of control | T/C (dose: 800.0 mg/kg/injection, schedule: Q## X016 (ip), vehicle: saline): 235 % of control | T/C (dose: 1600.0 mg/kg/injection, schedule: Q01DX001 (oral), vehicle: saline): 102 % of control

CC1(C)OC(=O)N(CO)C1=O
T/C (dose: 12.5 mg/kg/injection, schedule: Q01DX009 (ip), vehicle: saline): 100 % of control and 103 % of control | T/C [1]: 97 % of control and 102 % of control | T/C [2]: 100 % of control and 102 % of control | T/C [3]: 114 % of control and 111 % of control | T/C [4]: 120 % of control and 111 % of control | T/C (dose: 400.0 mg/kg/injection, schedule: Q01DX009 (ip), vehicle: saline): 91 % of control and 97 % of control

CCCCCCCCCCCCCCCC(CCCC)CCCCCC (stereo unspecified)
T/C (dose: 100.0 mg/kg/injection, schedule: Q01DX001 (ip), vehicle: saline sonified): 108 % of control | T/C (dose: 200.0 mg/kg/injection, schedule: Q01DX001 (ip), vehicle: saline sonified): 98 % of control | T/C (dose: 400.0 mg/kg/injection, schedule: Q01DX001 (ip), vehicle: saline sonified): 104 % of control

Cc1cc2[nH]c(=O)[nH]c2cc1C
T/C (dose: 50.0 mg/kg/injection, schedule: Q01DX009 (ip), vehicle: saline with Tween-80): 103 % of control | T/C (dose: 100.0 mg/kg/injection, schedule: Q01DX009 (ip), vehicle: saline with Tween-80): 94 % of control | T/C (dose: 200.0 mg/kg/injection, schedule: Q01DX009 (ip), vehicle: saline with Tween-80): 102 % of control

COC(=O)c1ccc([N+](=O)[O-])cc1C(=O)OC
T/C (dose: 100.0 mg/kg/injection, schedule: Q04DX003 (ip), vehicle: saline with Tween-80): 100 % of control | T/C (dose: 200.0 mg/kg/injection, schedule: Q04DX003 (ip), vehicle: saline with Tween-80): 108 % of control | T/C (dose: 400.0 mg/kg/injection, schedule: Q04DX003 (ip), vehicle: saline with Tween-80): 102 % of control
